Experiments:
Assay type in all cases: in vivo
[1] = system: glucose-loaded mice; experiment: Blood glucose time course after oral glucose loading in KK mice (Example II); settings: glucose 1 g/kg p.o.
Experimental: KK mice (age of 25 weeks; male) fed with a commercially available high-calories feed for breeding (CMF; Oriental Yeast) were divided into groups with matched body weights. After starvation for 17 hours, glucose was orally given at 1 g/kg. Immediately thereafter, the inhibitor A of renal glucose reabsorption (30 mg/kg or 45 mg/kg) or metformin (200 mg/kg or 300 mg/kg) was orally given. Additionally, a group given with the inhibitor A of renal glucose reabsorption (30 mg/kg) and metformin (200 mg/kg) was prepared. A vehicle was orally given to a control group after glucose dosing.
Blood glucose level was assayed in a time course.

[2] = system: Type 2 diabetes model Zucker diabetic fatty rats; experiment: Insulin content in pancreas after repeated dosing in Zucker diabetic fatty rats, ELISA (Example V); settings: twice daily p.o., day 39, starved 18 hours, inhibitor A 30 mg/kg, metformin 200 mg/kg, or both, ELISA of pancreas homogenates (Fig. 5)
Experimental: The agents were orally given twice daily at the same time period as in the case of the groups administered with a single one of these agents. Only a vehicle was orally given twice daily to the animals in a control group. On day 39 from the start of administration, the animals were starved for 18 hours. Then, pancreas was resected from the animals, for the assay of insulin in pancreas homogenates by ELISA, to compare the groups in terms of insulin content in pancreas.

[3] = system: glucose-loaded rats; experiment: Blood glucose time course after oral glucose loading in rats (Example I); settings: Wistar rats, glucose 1 g/kg p.o.
Experimental: Wistar rats (age of 7 weeks; male) were divided into groups with matched body weights. After 17-hour starvation, glucose was orally given at 1 g/kg to the animals. Immediately after the administration, the inhibitor A of renal glucose reabsorption or the inhibitor B of renal glucose reabsorption (A at 30 mg/kg or 60 mg/kg; B at 30 mg/kg or 80 mg/kg) or glibenclamide (1 mg/kg or 2 mg/kg) or nateglinide (50 mg/kg or 80 mg/kg) was orally given. Additionally, a group on the combined use of both of an inhibitor of renal glucose reabsorption and a hypoglycemic agent was also prepared. A vehicle was orally given to a control group after glucose administration.
Blood glucose was measured in a time course.

[4] = system: Type 2 diabetes model db/db mice; experiment: Nateglinide load test after repeated dosing in db/db mice (Example IV); settings: for Blood glucose level 30 minutes after loading / Blood glucose level 120 minutes after loading / Blood glucose level before loading: db/db mice, compound successively dosed 80 mg/kg p.o. twice daily, day 25, Mean ± SD, N = 5; for Blood glucose level 30 minutes after loading / Blood glucose level 120 minutes after loading: loading with glucose 1 g/kg and nateglinide 50 mg/kg p.o.; for Blood glucose level before loading: starved 17 hours, nateglinide load test
Experimental: Type 2 diabetes model db/db mice (age 6 weeks) were fed and kept with a feed twice daily over one hour starting 9 am and one hour starting 3 pm, for one week. Then, the mice were divided into groups with matched blood glucose levels and body weights. Subsequently, the inhibitor B of renal glucose reabsorption at 80 mg/kg or nateglinide at 80 mg/kg was orally given, immediately before feeding twice daily. Only a vehicle was orally given immediately before feeding twice daily to the animals of a control group. On day 25 from the start of administration, the mice of the individual experimental groups were starved for 17 hours and then orally given glucose (1 g/kg) and nateglinide (50 mg/kg). Blood glucose levels were measured before and after the administration, to examine whether or not the hypoglycemic action of nateglinide could be observed (nateglinide load test).

[5] = system: Male Wistar rats; experiment: Assessment of excretion action of urine sugar in rat (Test Example 2A); settings: urine collected 24 hours
Experimental: Male Wistar rats aged 5 weeks (purchased from Charles River Japan, Inc.) were acclimatized in metabolic cages for one week, for use at this experiment. The test compounds suspended in olive oil were dosed at 5 ml per 1 kg rat body weight.
After the rats were starved for 4 hours, the test compounds were orally given to the rats at 11 am. Immediately after dosing until 24 hours later, urine was collected. The volume of urine was measured. Then, urine sugar concentration was assayed by glucose oxidase method, to calculate the glucose excretion into urine per individual per day.

[6] = system: Male Wistar rats; experiment: Assessment of excretion action of urine sugar in rat (Test Example 1B); settings: Oral Administration in Rat (24 hours)
Experimental: Male Wistar rats aged 5 weeks (purchased from Charles River Japan, Inc.) were acclimatized in metabolic cages for one week, for use at this experiment. The test compounds suspended in olive oil were prepared into solutions to a dose of 5 ml per 1 kg rat body weight. After the rats were starved for 4 hours, the test compounds were orally given at 10, 30 and 100 mg/kg to the rats at 11 am. Immediately after dosing until 24 hours later, urine was collected. The volume of urine was measured. Then, urine glucose concentration was assayed by glucose oxidase method, to calculate the glucose excretion into urine per individual per day. As a positive control, 3-(5-benzo[b]furanyl)-2'-(6-o-methoxycarbonyl-β-D-glucopyranosyldxy)-6'-hydroxy-4'-methylpropiophenone [under a different name of 3-(benzo[b]furan-5-yl)-2', 6'-dihydroxy-4'-methylpropiophenone 2'-o-(6-o-methoxycarbonyl-β-D-glucopyranoside)] was used.

[7] = system: Type 2 diabetic model GK rats; experiment: Blood glucose after repeated once daily dosing in GK rats (Example III); settings: once daily p.o., vs vehicle-dosed group (Fig. 4)
Experimental: These agents were orally given once daily at the same time period as in the group administered with a single one agent. Only a vehicle was given orally to a control group. On day 25 after the start of administration, blood glucose was assayed sequentially, to compare the groups in terms of the resulting blood glucose levels.

[8] = nateglinide 50 mg/kg, inhibitor B 30 mg/kg, or both, p.o., vs vehicle group (Fig. 2)
[9] = nateglinide 80 mg/kg or inhibitor B 80 mg/kg p.o., vs lower dose (Fig. 2)
[10] = Dose 100 mg/kg p.o. in olive oil
[11] = glibenclamide 1 mg/kg, inhibitor A 30 mg/kg, or both, p.o., vs vehicle group (Fig. 1)

`CN(C)C(=N)N=C(N)N` [metformin] was tested, and the “increase of blood glucose / hyperglycemia 30 minutes after glucose loading” value ([1]; metformin 200 mg/kg or inhibitor A 30 mg/kg p.o., vs control group (Fig. 3)) was “did not suppress the increase of blood glucose”, the “increase of blood glucose 60 minutes later and thereafter” value ([1]; metformin 200 mg/kg p.o. (Fig. 3)) was “suppressed the increase” and the “pattern of glycemic suppression at elevated dose” value ([1]; metformin 300 mg/kg or inhibitor A 45 mg/kg p.o., vs lower dose (Fig. 3)) was “did not change”. The “insulin content in pancreas” value [2] was “no difference was observed”.
For `CC(C)[C@H]1CC[C@H](C(=O)N[C@H](Cc2ccccc2)C(=O)O)CC1` [nateglinide], the “blood glucose level 120 minutes after glucose loading and thereafter” value ([3]; nateglinide 50 mg/kg p.o., vs vehicle-dosed group (Fig. 2)) was “did not lower the blood glucose level”, the “hyperglycemia / blood glucose level 30 minutes after glucose loading” value [3, 8] was “more highly suppressed hyperglycemia” and the “hyperglycemia / blood glucose level 60 minutes after glucose loading” value [3, 8] was “more highly suppressed hyperglycemia”. The “pattern of glycemic suppression at increased dose” value (from here on “pattern … at increased dose”) [3, 9] was “did not change”, the “Blood glucose level 30 minutes after loading” value [4] was 259 ± 18 mg/dL and the “Blood glucose level 120 minutes after loading” value [4] was 144 ± 20 mg/dL. For the same molecule, the “Blood glucose level before loading” value [4] was 158 ± 12 mg/dL.
`CCc1ccc(Cc2c(O[C@@H]3O[C@H](COC(=O)OC)[C@@H](O)[C@H](O)[C@H]3O)nn(Cc3ccc(OC)cc3)c2C(F)(F)F)cc1` [Compound of Production Example 6-A, 4'-[(4'-ethylphenyl)methyl]-1'-[(4'-methoxyphenyl)methyl]-5'-trifluoromethyl-1H-pyrazole-3'-o-(6-carbomethoxy)-β-D-glucopyranoside] was tested, and the “Excreted urine sugar” value [5, 10] was 59 mg.
With `CCc1ccc(Cc2c(O[C@@H]3O[C@H](COC(=O)OC)[C@@H](O)[C@H](O)[C@H]3O)nn(C(CF)CF)c2C(F)(F)F)cc1` [Compound of Production Example 2B, 4'-[(4'-ethylphenyl)methyl]-1'-(1',3'-difluoro-2'-propyl) -5'-(trifluoromethyl) -1H-pyrazole-3'-o-(6-o-methoxycarbonyl-β-D-glucopyranoside)] the “Excreted urine sugar” value ([6]; Dose 10 mg/kg) was 136 mg, the “Excreted urine sugar” value ([6]; Dose 30 mg/kg) was 272 mg and the “Excreted urine sugar” value ([6]; Dose 100 mg/kg) was 524 mg.
In the case of `COc1ccc(Cl)cc1C(=O)NCCc1ccc(S(=O)(=O)NC(=O)NC2CCCCC2)cc1` [glibenclamide], the “blood glucose level 120 minutes after glucose loading and thereafter” value [3, 11] was “lowered blood glucose”, the “hyperglycemia / blood glucose level immediately after glucose loading (30 minutes)” value [3, 11] was “did not suppress hyperglycemia” and the “pattern … at increased dose” value ([3]; glibenclamide 2 mg/kg or inhibitor A 60 mg/kg p.o., vs lower dose (Fig. 1)) was “did not change”. The blood glucose level ([7]; day 25, glibenclamide 3 mg/kg, inhibitor A 30 mg/kg, or both) was “no difference was observed from the vehicle-dosed group” and the blood glucose level ([7]; day 25, glibenclamide 6 mg/kg) was “did not produce any difference in blood glucose level from the vehicle-dosed group”.
With `CCc1ccc(Cc2c(O[C@@H]3O[C@H](COC(=O)OC)[C@@H](O)[C@H](O)[C@H]3O)nn(-c3ccccc3)c2C(F)(F)F)cc1` [Compound of Production Example 8-A, 4'-[(4'-ethylphenyl)methyl]-1'-phenyl-5'-trifluoromethyl-1H-pyrazole-3'-o-(6-carbomethoxy)-β-D-glucopyranoside] the “Excreted urine sugar” value [5, 10] was 4.1 mg.
In the case of `COC(=O)OC[C@H]1O[C@@H](Oc2nn(C(C)C)c(C)c2Cc2ccc(OC)c(F)c2)[C@H](O)[C@@H](O)[C@@H]1O` [Compound of Production Example 10-A, 4'-[(3'-fluoro-4'-methoxyphenyl)methyl]-1'-isopropyl-5'-methyl-1H-pyrazole-3'-o-(6-carbomethoxy)-β-D-glucopyranoside], the “Excreted urine sugar” value [5, 10] was 734 mg.
For `COC(=O)OC[C@H]1O[C@@H](Oc2cc(C)cc(O)c2C(=O)CCc2ccc3occc3c2)[C@H](O)[C@@H](O)[C@@H]1O` [3-(5-benzo[b]furanyl)-2'-(6-o-methoxycarbonyl-β-D-glucopyranosyloxy)-6'-hydroxy-4'-methylpropiophenone], the “blood glucose level 180 minutes after glucose loading and thereafter” value ([3]; inhibitor B 30 mg/kg alone or with nateglinide 50 mg/kg, p.o., vs vehicle group (Fig. 2)) was “lower than that in the vehicle-dosed group”, the “hyperglycemia / blood glucose level 30 minutes after glucose loading” value [3, 8] was “not reduced as greatly as in the case of nateglinide” and the “pattern … at increased dose” value [3, 9] was “pattern of glycemic suppression was also observed”. The “hyperglycemia due to glucose loading, 30 minutes after loading with glucose and nateglinide” value ([4]; db/db mice given inhibitor B 80 mg/kg twice daily long-term, compared with vehicle-dosed and nateglinide-dosed groups) was “greatly suppressed hyperglycemia”, the “Blood glucose level 30 minutes after loading” value [4] was 172 ± 14 mg/dL and the “Blood glucose level 120 minutes after loading” value [4] was 103 ± 5 mg/dL. For the same molecule, the “Blood glucose level before loading” value [4] was 131 ± 6 mg/dL, the “Excreted urine sugar” value ([6]; Dose 10 mg/kg) was 2 mg and the “Excreted urine sugar” value ([6]; Dose 30 mg/kg) was 78 mg. The “Excreted urine sugar” value ([6]; Dose 100 mg/kg) was 274 mg.
In the case of `CCc1ccc(Cc2c(O[C@@H]3O[C@H](COC(=O)OC)[C@@H](O)[C@H](O)[C@H]3O)nn(C(C)C)c2C)cc1` [Compound of Production Example 16-A, 4'-[(4-ethylphenyl)methyl]-1'-isopropyl-5'-methyl-1H-pyrazole-3'-o-(6-carbomethoxy)-β-D-glucopyranoside], the “Excreted urine sugar” value ([5]; Dose 3 mg/kg p.o. in olive oil) was 28 mg, the “Excreted urine sugar” value ([5]; Dose 10 mg/kg p.o. in olive oil) was 263 mg and the “Excreted urine sugar” value ([5]; Dose 30 mg/kg p.o. in olive oil) was 294 mg. The “Excreted urine sugar” value [5, 10] was 598 mg.
With `Cc1[nH]nc(O[C@@H]2O[C@H](CO)[C@@H](O)[C@H](O)[C@H]2O)c1Cc1ccc(OC(C)C)cc1` [4-[(4-isopropoxyphenyl)methyl)-5-methyl-1H-pyrazole-3-o-β-D-glucopyranoside] the “Excreted urine sugar” value [5, 10] was 14 mg.
For `COC(=O)OC[C@H]1O[C@@H](Oc2nn(C(C)C)c(C)c2Cc2ccc(C)c(F)c2)[C@H](O)[C@@H](O)[C@@H]1O` [Compound of Production Example 14-A, 4'-[(3'-fluoro-4'-methylphenyl)methyl]-1'-isopropyl-5'-methyl-1H-pyrazole-3'-o-(6-carbomethoxy)-β-D-glucopyranoside], the “Excreted urine sugar” value [5, 10] was 918 mg.
`CCc1ccc(Cc2c(O[C@@H]3O[C@H](COC(=O)OC)[C@@H](O)[C@H](O)[C@H]3O)nn(Cc3ccccc3)c2C(F)(F)F)cc1` [Compound of Production Example 4-A, 4'-[(4'-ethylphenyl)methyl]-1'-benzyl-5'-trifluoromethyl-1H-pyrazole-3'-o-(6-carbomethoxy)-β-D-glucopyranoside] was tested, and the “Excreted urine sugar” value [5, 10] was 27 mg.

Source: EP1500403A1, “PREVENTIVE/REMEDY FOR DIABETES” (Ajinomoto Co., Inc., priority 2002, dated 2003)
